From patent US20260232682A1, “GSPT1 DEGRADER COMPOUNDS” (Captor Therapeutics S.A., priority 2023, published 2026)

Assays:
[1] = molecular target: [GSPT1]-[compound of formula (I)]-[CRBN/DDB1] complex (Homo sapiens, UniProt P15170+Q96SW2); experiment: AlphaLISA ternary complex formation assay (GSPT1); assay type: binding; conditions: 0.5 h; 1 μM compound; normalized to reference compound CC-885; read-out: Normalized AlphaLISA ternary complex average signal at 1 μM molecule
Outline: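 Biotinylated GSPT1 on streptavidin donor beads and 6×His-CRBN/DDB1 on anti-His acceptor beads (each 200 nM before mixing) in HBS pH 7.4 with 0.1% Tween-20 and 1 mM DTT, 2% DMSO final, 30 min at 25 °C. AlphaLISA luminescence is normalized between DMSO background and the reference compound's maximum.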

[2] = molecular target: T1, [IKZF2 ZF2]-[compound]-[CRBN/DDB1] ternary complex (Homo sapiens, UniProt Q96SW2+Q9UKS7); experiment: AlphaLISA assay for off-target recruitment detection, IKZF2 ZF2; assay type: binding; conditions: 1 μM compound; normalized to Helios modulator; read-out: Normalized ternary complex response, IKZF2 ZF2
T1 construct: IKZF2 ZF2
T1 sequence (Q9UKS7 140-162 limits assumed): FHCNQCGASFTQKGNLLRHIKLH
T1 sequence (Q96SW2 whole entry): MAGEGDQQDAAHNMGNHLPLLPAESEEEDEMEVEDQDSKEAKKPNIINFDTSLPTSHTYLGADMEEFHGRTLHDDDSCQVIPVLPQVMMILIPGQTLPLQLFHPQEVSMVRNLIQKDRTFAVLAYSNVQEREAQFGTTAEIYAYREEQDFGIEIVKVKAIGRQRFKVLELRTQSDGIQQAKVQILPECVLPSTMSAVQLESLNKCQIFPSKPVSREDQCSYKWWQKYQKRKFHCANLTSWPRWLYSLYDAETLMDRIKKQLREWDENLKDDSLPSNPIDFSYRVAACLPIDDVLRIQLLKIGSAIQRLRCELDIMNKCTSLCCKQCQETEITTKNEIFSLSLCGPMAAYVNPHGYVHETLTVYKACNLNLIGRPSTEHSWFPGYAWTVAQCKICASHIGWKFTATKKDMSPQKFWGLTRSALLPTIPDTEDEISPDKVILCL
T1 sequence (Q16531 whole entry partner): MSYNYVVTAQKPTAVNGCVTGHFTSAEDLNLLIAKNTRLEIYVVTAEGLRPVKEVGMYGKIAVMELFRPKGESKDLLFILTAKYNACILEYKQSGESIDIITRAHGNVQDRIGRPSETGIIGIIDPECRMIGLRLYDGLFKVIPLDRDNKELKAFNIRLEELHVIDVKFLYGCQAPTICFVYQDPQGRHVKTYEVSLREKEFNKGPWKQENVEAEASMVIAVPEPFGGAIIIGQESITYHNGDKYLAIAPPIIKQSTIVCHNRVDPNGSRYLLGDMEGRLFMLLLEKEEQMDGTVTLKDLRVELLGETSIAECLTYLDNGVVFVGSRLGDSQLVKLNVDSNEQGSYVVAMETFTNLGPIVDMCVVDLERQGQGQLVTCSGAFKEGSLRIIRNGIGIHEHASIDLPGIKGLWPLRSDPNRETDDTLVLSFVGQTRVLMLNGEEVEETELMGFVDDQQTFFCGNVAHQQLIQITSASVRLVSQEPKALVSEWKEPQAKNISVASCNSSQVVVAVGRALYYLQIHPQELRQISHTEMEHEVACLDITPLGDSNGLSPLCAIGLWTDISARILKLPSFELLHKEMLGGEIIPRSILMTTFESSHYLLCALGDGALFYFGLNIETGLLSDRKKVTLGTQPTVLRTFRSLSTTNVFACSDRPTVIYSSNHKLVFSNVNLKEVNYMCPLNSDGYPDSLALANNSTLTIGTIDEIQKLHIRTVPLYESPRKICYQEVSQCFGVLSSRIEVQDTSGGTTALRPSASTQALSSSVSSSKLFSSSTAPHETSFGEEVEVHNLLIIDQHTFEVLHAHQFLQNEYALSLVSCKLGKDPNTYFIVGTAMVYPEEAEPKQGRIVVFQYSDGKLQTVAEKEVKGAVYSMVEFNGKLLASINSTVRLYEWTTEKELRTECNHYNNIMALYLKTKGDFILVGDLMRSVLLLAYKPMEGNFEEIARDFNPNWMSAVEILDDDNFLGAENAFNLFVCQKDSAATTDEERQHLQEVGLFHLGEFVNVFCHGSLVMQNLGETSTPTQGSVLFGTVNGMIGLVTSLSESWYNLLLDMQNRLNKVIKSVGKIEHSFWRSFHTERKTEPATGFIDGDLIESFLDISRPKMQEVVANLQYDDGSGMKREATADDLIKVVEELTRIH
Outline: (§1)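 Neo-substrate with 40 μg/ml donor beads and 200 nM 6×His-CRBN/DDB1 with 40 μg/ml anti-His acceptor beads were each prepared in PBS pH 7.4 with Tween-20 and 1 mM DTT, preincubated 30 min at RT, then mixed. Compounds at 2% DMSO were incubated 30 min at 25 °C, read at 680/615 nm, and normalised between DMSO background and reference glue maximum.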

[3] = molecular target: [CK1α]-[compound]-[CRBN/DDB1] ternary complex (Homo sapiens, UniProt P48729+Q96SW2); experiment: AlphaLISA assay for off-target recruitment detection, CK1α; assay type: binding; conditions: 1 μM compound; normalized to FPFT-2216; read-out: Normalized ternary complex response, CK1α
[CK1α]-[compound]-[CRBN/DDB1] ternary complex, sequence (P48729 whole entry): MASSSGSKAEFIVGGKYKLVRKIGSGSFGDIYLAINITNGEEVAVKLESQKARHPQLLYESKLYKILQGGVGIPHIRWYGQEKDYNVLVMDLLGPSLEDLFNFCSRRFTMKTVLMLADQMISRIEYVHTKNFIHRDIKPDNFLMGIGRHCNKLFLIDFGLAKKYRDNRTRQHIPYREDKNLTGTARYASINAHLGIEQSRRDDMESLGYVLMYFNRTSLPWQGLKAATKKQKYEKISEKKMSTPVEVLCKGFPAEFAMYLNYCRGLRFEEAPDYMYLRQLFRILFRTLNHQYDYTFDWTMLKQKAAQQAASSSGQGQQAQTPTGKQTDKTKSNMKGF
[CK1α]-[compound]-[CRBN/DDB1] ternary complex, sequence (Q96SW2 whole entry): as the sequence (Q96SW2 whole entry) above
[CK1α]-[compound]-[CRBN/DDB1] ternary complex, sequence (Q16531 whole entry partner): as the sequence (Q16531 whole entry partner) above
Outline: as §1

[4] = molecular target: T2, GSPT1-HiBiT protein in GSPT1-HiBiT HEK293 cells (Homo sapiens, UniProt P15170+Q96SW2); experiment: GSPT1 degradation assay using HiBiT system (Nano-Glo HiBiT lytic assay); assay type: cell-based; conditions: 6 hours treatment
T2 construct: endogenous in cells; host or cells: HEK293 (CRISPR/Cas9 knock-in of HiBiT at the GSPT1 locus)
T2 sequence (P15170 whole entry): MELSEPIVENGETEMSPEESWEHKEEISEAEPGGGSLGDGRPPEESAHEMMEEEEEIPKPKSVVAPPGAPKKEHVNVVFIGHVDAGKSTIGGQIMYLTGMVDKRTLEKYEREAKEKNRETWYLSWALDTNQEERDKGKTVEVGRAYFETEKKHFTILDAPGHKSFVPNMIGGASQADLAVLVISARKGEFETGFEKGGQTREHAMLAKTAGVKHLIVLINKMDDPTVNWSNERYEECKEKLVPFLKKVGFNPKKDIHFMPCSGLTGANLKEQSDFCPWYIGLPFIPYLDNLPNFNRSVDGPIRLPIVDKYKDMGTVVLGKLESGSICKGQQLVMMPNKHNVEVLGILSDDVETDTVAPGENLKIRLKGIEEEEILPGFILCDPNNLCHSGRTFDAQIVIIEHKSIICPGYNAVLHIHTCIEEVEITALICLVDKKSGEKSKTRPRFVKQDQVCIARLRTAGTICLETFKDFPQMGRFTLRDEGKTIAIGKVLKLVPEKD
T2 sequence (Q96SW2 whole entry): as the sequence (Q96SW2 whole entry) above
T2 sequence (Q16531 whole entry partner): as the sequence (Q16531 whole entry partner) above
Outline: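 CRISPR-engineered HEK293 cells expressing endogenous C-terminally HiBiT-tagged GSPT1, seeded at 2×10^3/well overnight, then treated 6 h at 37 °C with 12-point titrations (10 μM to 0.03 nM, 0.25% DMSO). Remaining GSPT1 measured by Nano-Glo HiBiT lytic luminescence. DC50 and Dmax from non-linear regression of DMSO-normalized RLU.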

[GSPT1]-[compound of formula (I)]-[CRBN/DDB1] complex, sequence (P15170 whole entry): as the sequence (P15170 whole entry) above
[GSPT1]-[compound of formula (I)]-[CRBN/DDB1] complex, sequence (Q96SW2 whole entry): as the sequence (Q96SW2 whole entry) above
[GSPT1]-[compound of formula (I)]-[CRBN/DDB1] complex, sequence (Q16531 whole entry partner): as the sequence (Q16531 whole entry partner) above

## Cc1nc2cc(CNC(=O)Nc3cc(C(C)(C)C)no3)ccc2cc1N1CCC(=O)NC1=O [Compound 64, 1-(3-(tert-butyl)isoxazol-5-yl)-3-((3-(2,4-dioxotetrahydropyrimidin-1(2H)-yl)-2-methylquinolin-7-yl)methyl)urea]
[1]
  activation at 1 µM: 10 to 50%
[2]
  activation at 1 µM: < 10%
[3]
  activation at 1 µM: < 10%
[4]
  Dmax: ≥ 75%
[4]; read-out: HiBiT lytic assay Geomean absolute DC50
  DC50: > 100 nM
